Experimental data from patent US7597882B2, “Protein crosslinkers, crosslinking methods and applications thereof” (Incept LLC, priority 2006, dated 2009).

Key:
[1] = target: T1, albumin (Bos taurus, UniProt P02769); test: Gelation of albumin solution in PBS by synthetic crosslinker after raising pH; parameters: species or system bovine; details: for time to soft hydrogel: 333 mg bovine serum albumin in 0.667 ml PBS; for Gel time: 27° C.
T1 construct: 333 mg bovine serum albumin was dissolved in 0.667 ml PBS
From the text: As described above, a biological fluid (e.g., blood, serum, or fibrinogen rich fractions) may be used for reaction with crosslinkers or the monomers to form a crosslinked gel material. The material may be made in preparation for a medical procedure, e.g., immediately before or during the same, and used with a crosslinker or the monomer. […] The crosslinking reaction is accelerated by raising the pH of the solution. This can be achieved by contacting such composition with suitable alkaline buffer. Nonlimiting examples of suitable alkaline buffers include HEPES, sodium hydroxide, potassium hydroxide, calcium hydroxide, bicarbonate/NaOH pH 10, sodium borate pH 10, 1.5 M glycine/NaOH pH 10, 0.5-0.75M sodium carbonate/bicarbonate pH 10, 1M hydroxyethylepiperazine propane sulfonic acid (EPPS) pH 8.5, Trishydroxymethyl aminoethane sulphonic acid pH 8 and triethanol amine pH 7. The amount of alkaline buffer that is utilized should be enough to induce crosslinking. In some cases, the crosslinker is mixed with the alkaline buffer to raise the pH and then mixed with biological fluid to induce crosslinking or gelation. This method is least preferred due to hydrolysis of n-hydroxysuccimide esters at higher pH. The amine-succinimide ester reaction parameters such as number of reactive functional groups present on the biological fluid components, concentration of each ingredient, pH, temperature and pressures are adjusted such that gelation occurs within 60 minutes, more preferably with in 60 seconds and most preferably with 1 to 10 seconds.
pH was raised using 3M NaOH solution, at ambient temperature (27° C.) and mixed equal volumes. […] PEG 600 is polyethylene glycol with a molecular weight of 600.
[…] of […] was dissolved in 1 ml PBS. […] 20 microliter […] solution in PBS and 20 microliter albumin solution were mixed on a glass plate to form a uniform solution.
[…] of BTANHS was dispersed in 0.9 ml PBS. […] 20 microliter BTANHS dispersion in PBS and 20 microliter of albumin solution were mixed on a glass plate to form a uniform dispersion.
[…] of BTANHS was dispersed in 0.8 ml PBS containing 2% PLURONIC F127 (from BASF corporation USA) as a surfactant. Sonication or high speed stirring helps to form the emulsion. […] 20 microliter BTANHS emulsion in PBS and 20 microliter of albumin solution were mixed in a 1 ml plastic centrifuge tube to form a uniform solution.
Polyethylene glycol serves as an organic solvent. 200 mg bovine serum albumin was dissolved in 0.800 ml PBS.
20 microliter albumin solution and 20 microliter crosslinkers solution were mixed on a glass plate to form a uniform solution.

[2] = Solubility in water; type: physicochemical
[3] = Degradation of crosslinked gel made with 8 arm PEG amine; type: physicochemical; details: gel with 8 arm PEG amine 20000; hydrolysis of ester bond of crosslinker
Method: 1 ml of each of these two solutions are mixed to produce a crosslinked gel. The crosslinked gel degrades due to hydrolysis of succinate ester bond in Hydroxylamine Succinate NHS ester.
0.12 g Hydroxylamine Glutarate NHS ester (Example 7) is dissolved in 5 ml phosphate buffered saline. 1 ml of each of two solutions are mixed to produce a crosslinked gel. The crosslinked gel degrades due to hydrolysis of glutarate ester bond in Hydroxylamine Glutarate NHS ester.

T1 sequence (P02769 25-607): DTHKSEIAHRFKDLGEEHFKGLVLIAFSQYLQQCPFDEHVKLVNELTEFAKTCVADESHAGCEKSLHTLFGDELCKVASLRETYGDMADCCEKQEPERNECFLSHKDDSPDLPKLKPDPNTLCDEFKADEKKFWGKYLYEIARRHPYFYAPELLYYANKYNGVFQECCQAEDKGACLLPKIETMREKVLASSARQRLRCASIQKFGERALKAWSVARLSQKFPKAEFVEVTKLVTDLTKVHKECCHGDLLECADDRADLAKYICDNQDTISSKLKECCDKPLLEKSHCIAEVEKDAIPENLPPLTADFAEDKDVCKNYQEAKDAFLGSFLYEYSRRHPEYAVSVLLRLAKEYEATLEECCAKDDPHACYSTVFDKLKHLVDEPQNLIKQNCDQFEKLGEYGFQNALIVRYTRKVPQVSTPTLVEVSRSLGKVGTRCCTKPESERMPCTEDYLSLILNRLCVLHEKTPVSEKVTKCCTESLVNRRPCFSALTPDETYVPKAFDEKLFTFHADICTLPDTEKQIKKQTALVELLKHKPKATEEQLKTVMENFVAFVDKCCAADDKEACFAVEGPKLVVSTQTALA

Row | time to soft hydrogel ([1]; crosslinker dispersion in PBS, 3M sodium hydroxide) | time to soft hydrogel ([1]; crosslinker emulsion in PBS with 2% PLURONIC F127, triethanol amine) | Notes (gel formed) ([1]; 5% albumin in PBS, crosslinker 10% in PBS) | Gel time ([1]; 5% albumin in PBS, crosslinker 10% in PBS, 3M NaOH, equal volumes) | Notes (gel formed) ([1]; 5% albumin in PBS, crosslinker (10%) in PEG 600) | Gel time ([1]; 5% albumin in PBS, crosslinker (10%) in PEG 600, 3M NaOH) | Notes (gel formed) ([1]; 10% albumin in PBS, crosslinker 10% in PBS) | Gel time ([1]; 10% albumin in PBS, crosslinker 10% in PBS, 3M NaOH, equal volumes) | Notes (gel formed) ([1]; 20% albumin in PBS, crosslinker 10% in PBS) | Gel time ([1]; 20% albumin in PBS, crosslinker 10% in PBS, 3M NaOH, equal volumes) | Notes (gel formed) ([1]; 20% albumin in PBS, crosslinker (10%) in PEG 600) | Gel time ([1]; 20% albumin in PBS, crosslinker (10%) in PEG 600, 3M NaOH) | Notes (gel formed) ([1]; 30% albumin in PBS, crosslinker 10% in PBS) | Gel time ([1]; 30% albumin in PBS, crosslinker 10% in PBS, pH raised with 3M NaOH, equal volumes) | solubility in water [2] | Molecule | degradation of crosslinked gel [3]
1 | 5 min | 3 min | Did not gel | >28 min | Did not gel | >25 min | Soft gel | 18 min | Soft gel | 3 min | Soft gel | 5 min | Soft gel | 1 min | Water Insoluble | O=C(CC(C(=O)ON1C(=O)CCC1=O)C(CC(=O)ON1C(=O)CCC1=O)C(=O)ON1C(=O)CCC1=O)ON1C(=O)CCC1=O (stereo not shown) [BTANHS] | –
2 | – | – | – | – | – | – | – | – | – | – | – | – | – | – | – | Hydroxylamine Glutarate NHS Ester | degrades
